# Assay results reported in article PMC11633360 (ChemistryOpen, 2024).
# pIC50: −log10 of the molar value. “And” between values parts separate entries of the source, which are not always exact repeats. Identical values can stand only once.
# What was measured:
# [1] = DPPH radical scavenging activity; settings: DPPH 300 μM in methanol, 30 minutes, 25 °C
# Protocol: The capacity of the chemical compounds to decolourize the purple colour of DPPH solution was investigated following a modified procedure of Turkoglu et al..[48] […] The solution was mixed gently before equilibration in a dark compartment for 30 minutes at 25 °C. […] The DPPH radical scavenging ability of each compound was estimated using the expression below: %DPPHscavenging=1-TestsampleAbs/BlankAbs×100
# [2] = Nitric oxide (NO) scavenging activity; settings: sodium nitroprusside, pH 7.4, 2 hr, 37 °C, Griess reagent
# Protocol: The NO radical mop‐up ability of the compounds was evaluated using Kurian et al.[49] previous protocol. […] After 2 hr equilibration at 37 °C, 0.250 mL of Griess reagent was added, and the absorbance of the coloured solution produced was measured at 545 nm against a blank solution lacking the test samples. Subsequently, the % NO scavenging antioxidant capacity of the compounds was expressed as: %Nitricoxidescavenging=1-TestsampleAbs/BlankAbs×100
# Mtb H37Rv = assay: microbe, parasite or virus in culture; type: cell-based, Mycobacterium tuberculosis; settings: for MIC90: Mycobacterium tuberculosis, H37RV, read-out: GFP Assay – 10pt DR: MIC90
SMILES,melting point [°C],pIC50 [1],pIC50 [2],GFP Assay – 10pt DR: MIC90 (Mtb H37Rv),MIC90 (Mtb H37Rv) [µM]
"FC(F)(F)Oc1ccc(Nc2ccnc3cc(Cl)ccc23)cc1 [12 g, 7‐Chloro‐N‐(4‐(trifluoromethoxy)phenyl)quinolin‐4‐Amine]",> 250,< 2.40,< 2.40,,
"CCN1CCN(c2nn(-c3ccnc4cc(Cl)ccc34)c3ncnc(N)c23)CC1 [Compound 10f, 1‐(7‐Chloroquinolin‐4‐yl)‐3‐(4‐Ethylpiperazin‐1‐yl)‐1H‐Pyrazolo[3,4–d]pyrimidin‐4‐Amine]",,< 2.40,3.10,>125 µM and 125 µM,62.5
"O=C1O[C@H]([C@@H](O)CO)C(O)=C1O [Ascorbic acid, reference compound]",,4.30,< 2.40,,
"Cc1ccc(Nc2ccnc3cc(Cl)ccc23)cc1 [Compound 12e, 7‐Chloro‐N‐(p–tolyl)quinolin‐4‐Amine]",> 250,< 2.40,< 2.40,,
"CC1CCN(c2nn(-c3ccnc4cc(Cl)ccc34)c3ncnc(N)c23)CC1 [Compound 10c, 1‐(7‐chloroquinolin‐4‐yl)‐3‐(4‐methylpiperidin‐1‐yl)‐1H‐pyrazolo[3,4–d]pyrimidin‐4‐amine]",,2.68,2.56,>125 µM and 125 µM,62.5
"Nc1ncnc2c1cnn2-c1ccnc2cc(Cl)ccc12 [Compound 10a, 1‐(7‐Chloroquinolin‐4‐yl)‐1H‐Pyrazolo[3,4–d]pyrimidin‐4‐Amine]",,< 2.40,2.59,,> 125
"Nc1ncnc2c1c(N1CCOCC1)nn2-c1ccnc2cc(Cl)ccc12 [Compound 10d, 1‐(7‐Chloroquinolin‐4‐yl)‐3‐Morpholino‐1H‐Pyrazolo[3,4–d]pyrimidin‐4‐Amine]",,< 2.40,2.61,,> 125
"Nc1ncnc2c1c(N1CCCCC1)nn2-c1ccnc2cc(Cl)ccc12 [Compound 10b, 1‐(7‐Chloroquinolin‐4‐yl)‐3‐(piperidin‐1‐yl)‐1H‐Pyrazolo[3,4–d]pyrimidin‐4‐Amine]",,< 2.40,< 2.40,,> 125
"Clc1ccc2c(Nc3ccccc3)ccnc2c1 [Compound 12a, 7‐Chloro‐N‐Phenylquinolin‐4‐Amine]",> 250,< 2.40,3.30,62.5 µM and >125 µM,125
"Fc1ccc(Nc2ccnc3cc(Cl)ccc23)cc1 [Compound 12b, 7‐Chloro‐N‐(4‐Fluorophenyl)quinolin‐4‐Amine]",,< 2.40,2.72,,
"CCN1CCN(c2n[nH]c3ncnc(N)c23)CC1 [Compound 8e, 3‐(4‐Ethylpiperazin‐1‐yl)‐1H‐Pyrazolo[3,4–d]pyrimidin‐4‐Amine]",,3.03,3.01,62.5 µM,> 125
"Nc1ncnc2[nH]nc(N3CCCCC3)c12 [Compound 8a, 3‐(piperidin‐1‐yl)‐1H‐Pyrazolo[3,4–d]pyrimidin‐4‐Amine]",,2.47,3.10,125 µM,> 125
"Clc1ccc2c(Nc3ccc(Br)cc3)ccnc2c1 [Compound 12d, N‐(4‐Bromophenyl)‐7‐Chloroquinolin‐4‐Amine]",> 250,< 2.40,< 2.40,,> 125
"CN1CCN(c2n[nH]c3ncnc(N)c23)CC1 [Compound 8d, 3‐(4‐Methylpiperazin‐1‐yl)‐1H‐Pyrazolo[3,4–d]pyrimidin‐4‐Amine]",,3.24,3.10,62.5 µM,> 125
"O=[N+]([O-])c1ccc(Nc2ccnc3cc(Cl)ccc23)cc1 [12 h, 7‐Chloro‐N‐(4‐Nitrophenyl)quinolin‐4‐Amine]",,4.10,3.19,62.5 µM,> 125
Nc1ncnc2[nH]nc(N3CCN(CCO)CC3)c12 [Compound 8f],,2.45,3.22,,> 125
"COc1ccc(Nc2ccnc3cc(Cl)ccc23)cc1 [Compound 12f, 7‐Chloro‐N‐(4‐Methoxyphenyl)quinolin‐4‐Amine]",,< 2.40,3.06,>125 µM,62.5
"Nc1ncnc2[nH]ncc12 [Compound 4, 1H‐Pyrazolo[3,4–d]pyrimidin‐4‐Amine]",,< 2.40,3.11,,
"CN1CCN(c2nn(-c3ccnc4cc(Cl)ccc34)c3ncnc(N)c23)CC1 [Compound 10e, 1‐(7‐Chloroquinolin‐4‐yl)‐3‐(4‐Methylpiperazin‐1‐yl)‐1H‐Pyrazolo[3,4–d]pyrimidin‐4‐Amine]",,< 2.40,< 2.40,,
"Nc1ncnc2[nH]nc(N3CCOCC3)c12 [Compound 8c, 3‐Morpholino‐1H‐Pyrazolo[3,4–d]pyrimidin‐4‐Amine]",,< 2.40,3.06,,
"Clc1ccc(Nc2ccnc3cc(Cl)ccc23)cc1 [Compound 12c, 7‐Chloro‐N‐(4‐Chlorophenyl)quinolin‐4‐Amine]",> 250,< 2.40,< 2.40,,> 125
"Nc1ncnc2c1c(N1CCN(CCO)CC1)nn2-c1ccnc2cc(Cl)ccc12 [10 g, 2‐(4‐(4‐Amino‐1‐(7‐Chloroquinolin‐4‐yl)‐1H‐Pyrazolo[3,4–d]pyrimidin‐3‐yl)piperazin‐1‐yl)ethanol]",,2.53,3.55,>125 µM,62.5
"CC1CCN(c2n[nH]c3ncnc(N)c23)CC1 [Compound 8b, 3‐(4‐methylpiperidin‐1‐yl)‐1H‐pyrazolo[3,4–d]pyrimidin‐4‐amine]",,< 2.40,3.00,,
"Clc1ccc2c(Cl)ccnc2c1 [Compound 9, 4,7‐dichloroquinoline]",,< 2.40,3.09,,> 125
